{"source": "paper PMC11765512", "about": "(International Journal of Molecular Sciences, 2025)", "key": {"[1]": {"target": "S-RBD-ACE2 interaction, AH109 (pAD-S-RBD+pBD-ACE2) (UniProt P0DTC2+Q9BYF1)", "assay_type": "cell-based, SARS-CoV-2 S-RBD, human ACE2 (in yeast)"}, "[2]": {"test_system": "S-RBD-ACE2 interaction, AH109 (pAD-S-RBD+pBD-ACE2)", "assay_type": "cell-based, SARS-CoV-2 S-RBD, human ACE2 (in yeast)"}}, "data": [{"smiles": "CC(C)CCC[C@@H](C)[C@H]1CC[C@H]2[C@@H]3CC[C@H]4C[C@@H](O[C@@H]5O[C@H](COS(=O)(=O)O)[C@@H](O[C@H]6O[C@H](COS(=O)(=O)O)[C@@H](O[C@H]7O[C@H](COS(=O)(=O)O)[C@@H](O[C@H]8O[C@H](COS(=O)(=O)O)[C@@H](OS(=O)(=O)O)[C@H](OS(=O)(=O)O)[C@H]8OS(=O)(=O)O)[C@H](OS(=O)(=O)O)[C@H]7OS(=O)(=O)O)[C@H](OS(=O)(=O)O)[C@H]6OS(=O)(=O)O)[C@H](OS(=O)(=O)O)[C@H]5OS(=O)(=O)O)CC[C@]4(C)[C@H]3CC[C@]12C", "note": "[Pixatimod, reference compound]", "values": [{"measurement": "MIC against AH109 (pAD-S-RBD+pBD-ACE2)", "setting": "[1]", "result": 1.56, "unit": "μg/mL"}]}, {"smiles": "Cc1ccc(N(Sc2ccc(Cl)cc2)C2C=CS(=O)(=O)C2)cc1", "note": "(stereo not drawn) [IMB-4A]", "values": [{"measurement": "Difference of MICs among AH109 (pAD-S-RBD+pBD-ACE2) and AH109 (pAD-T+pBD-53)", "setting": "[2]", "result": 2, "unit": "fold"}]}, {"smiles": "O=C(c1ccc(N2CCCCS2(=O)=O)cc1)N1CCN(C(=O)c2ccco2)CC1", "note": "[IMB-1C]", "values": [{"measurement": "Difference of MICs among AH109 (pAD-S-RBD+pBD-ACE2) and AH109 (pAD-T+pBD-53)", "setting": "[2]", "result": 2, "unit": "fold"}]}]}
